Values quoted from earlier work, collected in patent publication US20230218596A1 (MEREO BIOPHARMA 4 LIMITED, priority 2020, published 2023).
Like-named read-outs stand apart in the source and are kept apart here.

Assays:
[1] = tested on: NE from other species, including mice; settings: cited from earlier work
[2] = tested on: cystic fibrosis; settings: cystic fibrosis patients, 4-week duration; cited from earlier work
[3] = tested on: bronchiectasis; settings: bronchiectasis patients, 4-week duration; cited from earlier work
[4] = tested on: ARDS; settings: experimental models of ARDS; cited from earlier work
[5] = target: T1, human NE (Homo sapiens, UniProt P08246); settings: cited from earlier work
T1 sequence (P08246 30-267): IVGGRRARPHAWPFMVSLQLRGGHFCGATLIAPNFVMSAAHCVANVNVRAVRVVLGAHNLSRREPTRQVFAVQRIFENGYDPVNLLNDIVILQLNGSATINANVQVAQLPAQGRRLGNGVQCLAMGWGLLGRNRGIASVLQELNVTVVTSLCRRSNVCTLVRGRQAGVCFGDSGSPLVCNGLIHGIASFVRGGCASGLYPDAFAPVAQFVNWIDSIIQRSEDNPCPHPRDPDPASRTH

[6] = target: T2, NE (Homo sapiens, UniProt P08246); settings: whole-blood assay; cited from earlier work
[7] = target: T2, NE; settings: cell-associated assay; cited from earlier work

Cc1c(-c2ccnn2C)cc(C(=O)NCc2ccc(S(C)(=O)=O)cn2)c(=O)n1-c1cccc(C(F)(F)F)c1 [Alvelestat, N-{[5-(methanesulfonyl)pyridin-2-yl]methyl}-6-methyl-5-(1-methyl-1H-pyrazol-5-yl)-2-oxo-1-[3-(trifluoromethyl)phenyl]-1,2-dihydropyridine-3-carboxamide]
crossover potency for NE from other species [1]: good crossover potency | biomarkers of elastase activity and inflammation [2]: significant decrease | lung function and inflammation [3]: clinically significant improvement | lung inflammation and injury [4]: protected the lung from inflammation and injury | reversibility of inhibition [5]: rapidly reversible | IC50 [6]: 44 nM | IC50 [7]: 48 nM
